Paper PMC6802847, “Mutual role of ecto-5'-nucleotidase/CD73 and concentrative nucleoside transporter 3 in the intestinal uptake of dAMP” (PLoS ONE, 2019)

What was measured:
[1] = target: T1, concentrative nucleoside transporter 3 (CNT3) (Homo sapiens, UniProt Q9HAS3); assay: radiolabelled uptake ([…]) in COS-7 cells transiently expressing CNT3 vs mock; type: cell-based
T1 construct: gene SLC28A3
T1 sequence (Q9HAS3 1-691): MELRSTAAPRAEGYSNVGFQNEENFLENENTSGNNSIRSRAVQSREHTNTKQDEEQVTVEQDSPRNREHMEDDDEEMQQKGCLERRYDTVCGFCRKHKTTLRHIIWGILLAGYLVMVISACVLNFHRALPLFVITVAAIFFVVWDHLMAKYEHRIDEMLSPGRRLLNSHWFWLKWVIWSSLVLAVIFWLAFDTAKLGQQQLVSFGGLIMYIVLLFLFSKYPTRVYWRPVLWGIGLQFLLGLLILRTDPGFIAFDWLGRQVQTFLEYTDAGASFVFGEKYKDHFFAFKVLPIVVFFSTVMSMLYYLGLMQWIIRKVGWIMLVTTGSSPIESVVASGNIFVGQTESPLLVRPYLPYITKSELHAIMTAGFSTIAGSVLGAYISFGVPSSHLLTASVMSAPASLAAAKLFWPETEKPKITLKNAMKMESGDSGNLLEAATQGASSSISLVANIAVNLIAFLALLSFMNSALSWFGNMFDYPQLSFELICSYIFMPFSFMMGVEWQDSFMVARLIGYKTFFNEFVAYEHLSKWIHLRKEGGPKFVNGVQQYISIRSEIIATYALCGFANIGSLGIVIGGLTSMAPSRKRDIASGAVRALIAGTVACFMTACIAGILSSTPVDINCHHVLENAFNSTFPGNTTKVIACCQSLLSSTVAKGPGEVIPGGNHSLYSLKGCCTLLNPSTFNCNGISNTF

[2] = target: T1, concentrative nucleoside transporter 3 (CNT3); assay: radiolabelled uptake ([…]) in COS-7 cells transiently expressing CNT3 vs empty vector; type: cell-based
[3] = target: T2, ecto-5'-nucleotidase/CD73 (Homo sapiens, UniProt P21589); assay: phosphate release from […] dAMP in COS-7 cells expressing CD73
T2 construct: gene NT5E
T2 sequence (P21589 27-549): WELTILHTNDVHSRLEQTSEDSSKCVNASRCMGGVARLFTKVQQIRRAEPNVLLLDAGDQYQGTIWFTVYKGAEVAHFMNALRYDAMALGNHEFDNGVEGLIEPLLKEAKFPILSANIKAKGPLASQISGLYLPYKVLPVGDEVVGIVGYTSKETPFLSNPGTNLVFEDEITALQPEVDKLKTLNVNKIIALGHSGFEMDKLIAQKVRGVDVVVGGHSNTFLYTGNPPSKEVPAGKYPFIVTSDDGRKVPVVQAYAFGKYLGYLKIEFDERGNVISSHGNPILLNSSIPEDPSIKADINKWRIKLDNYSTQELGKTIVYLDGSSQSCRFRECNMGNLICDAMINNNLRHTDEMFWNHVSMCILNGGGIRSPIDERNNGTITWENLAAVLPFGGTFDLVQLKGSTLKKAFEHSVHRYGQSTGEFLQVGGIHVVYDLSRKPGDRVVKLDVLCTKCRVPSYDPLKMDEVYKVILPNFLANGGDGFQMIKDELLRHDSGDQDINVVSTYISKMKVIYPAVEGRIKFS

[4] = substrate: Nc1ncnc2c1ncn2C1CC(O)C(CO)O1; assay: cells, lysate or membranes; conditions: Na+
[5] = substrate: Nc1ncnc2c1ncn2[C@H]1C[C@H](O)[C@@H](COP(=O)(O)O)O1; assay: cells, lysate or membranes; conditions: Na+

Molecule: Cc1cn([C@H]2C[C@H](O)[C@@H](CO)O2)c(=O)[nH]c1=O [thymidine]
- radiolabelled uptake (10 nM) in COS-7 cells transiently expressing CNT3 vs mock [1]: Transfection of CNT3 cDNA into COS-7 cells resulted in an increased uptake of [^3H]thymidine, a typical substrate of CNT3

Molecule: Nc1ncnc2c1ncn2[C@@H]1O[C@H](COP(=O)(O)O)[C@@H](O)[C@H]1O [Adenosine 5'-monophosphate]
- radiolabelled uptake (10 nM) in COS-7 cells transiently expressing CNT3 vs empty [2]: enhanced cellular uptake of [^3H]AMP with the introduction of CNT3 alone was greater than that of [^3H]dAMP

Molecule: Nc1ncnc2c1ncn2[C@H]1C[C@H](O)[C@@H](COP(=O)(O)O)O1 [2'-deoxyadenosine 5'-monophosphate]
- phosphate release from 10 μM dAMP in COS-7 cells expressing CD73 [3]: the phosphate release from dAMP was significantly increased by the introduction of CD73 into COS-7 cells

B1: concentrative nucleoside transporter 3 (CNT3) (Homo sapiens) (protein)
chain: MELRSTAAPRAEGYSNVGFQNEENFLENENTSGNNSIRSRAVQSREHTNTKQDEEQVTVEQDSPRNREHMEDDDEEMQQKGCLERRYDTVCGFCRKHKTTLRHIIWGILLAGYLVMVISACVLNFHRALPLFVITVAAIFFVVWDHLMAKYEHRIDEMLSPGRRLLNSHWFWLKWVIWSSLVLAVIFWLAFDTAKLGQQQLVSFGGLIMYIVLLFLFSKYPTRVYWRPVLWGIGLQFLLGLLILRTDPGFIAFDWLGRQVQTFLEYTDAGASFVFGEKYKDHFFAFKVLPIVVFFSTVMSMLYYLGLMQWIIRKVGWIMLVTTGSSPIESVVASGNIFVGQTESPLLVRPYLPYITKSELHAIMTAGFSTIAGSVLGAYISFGVPSSHLLTASVMSAPASLAAAKLFWPETEKPKITLKNAMKMESGDSGNLLEAATQGASSSISLVANIAVNLIAFLALLSFMNSALSWFGNMFDYPQLSFELICSYIFMPFSFMMGVEWQDSFMVARLIGYKTFFNEFVAYEHLSKWIHLRKEGGPKFVNGVQQYISIRSEIIATYALCGFANIGSLGIVIGGLTSMAPSRKRDIASGAVRALIAGTVACFMTACIAGILSSTPVDINCHHVLENAFNSTFPGNTTKVIACCQSLLSSTVAKGPGEVIPGGNHSLYSLKGCCTLLNPSTFNCNGISNTF
- Km [4]: 56.3 ± 7.0 µM
- Km [5]: 59.6 ± 3.8 µM
